Literature values as cited in patent US20230062279A1, “PHARMACEUTICAL COMPOSITIONS OF BORTEZOMIB” (EXTROVIS AG, priority 2021, published 2023).
Like-named read-outs stand apart in the source and are kept apart here.

SMILES: CC(C)C[C@H](NC(=O)[C@H](Cc1ccccc1)NC(=O)c1cnccn1)B(O)O [bortezomib, [(1R)-3-methyl-1-[[(2S)-1-oxo-3-phenyl-2-[(pyrazinylcarbonyl)amino]propyl]amino]butyl] boronic acid]
- degradation (PEG 300:Ethanol:Water (40:10:50), 25° C., 24 hours): about 20%
- degradation (PG:Ethanol:Water, 25° C., 8 months): 20%
- degradation (ethanol and normal saline 2:98, pH 2.8, 25° C., 1 month): 20%
